Literature values, collected in paper PMC5102340 (Advanced functional materials, 2016).
Read-outs that look alike come from different tables or passages of the source.

SMILES: Oc1ccccc1O [Catechol]
- pKa1: ≈ 9.4
- pKa2: ≈ 13.7
- pKa1 (listed as catechol): 9.4
